The assay deals with T1, rabbit muscle glycogen phosphorylase (Oryctolagus cuniculus, UniProt P00489).
T1 construct: gene PYGM
T1 sequence (P00489 2-843): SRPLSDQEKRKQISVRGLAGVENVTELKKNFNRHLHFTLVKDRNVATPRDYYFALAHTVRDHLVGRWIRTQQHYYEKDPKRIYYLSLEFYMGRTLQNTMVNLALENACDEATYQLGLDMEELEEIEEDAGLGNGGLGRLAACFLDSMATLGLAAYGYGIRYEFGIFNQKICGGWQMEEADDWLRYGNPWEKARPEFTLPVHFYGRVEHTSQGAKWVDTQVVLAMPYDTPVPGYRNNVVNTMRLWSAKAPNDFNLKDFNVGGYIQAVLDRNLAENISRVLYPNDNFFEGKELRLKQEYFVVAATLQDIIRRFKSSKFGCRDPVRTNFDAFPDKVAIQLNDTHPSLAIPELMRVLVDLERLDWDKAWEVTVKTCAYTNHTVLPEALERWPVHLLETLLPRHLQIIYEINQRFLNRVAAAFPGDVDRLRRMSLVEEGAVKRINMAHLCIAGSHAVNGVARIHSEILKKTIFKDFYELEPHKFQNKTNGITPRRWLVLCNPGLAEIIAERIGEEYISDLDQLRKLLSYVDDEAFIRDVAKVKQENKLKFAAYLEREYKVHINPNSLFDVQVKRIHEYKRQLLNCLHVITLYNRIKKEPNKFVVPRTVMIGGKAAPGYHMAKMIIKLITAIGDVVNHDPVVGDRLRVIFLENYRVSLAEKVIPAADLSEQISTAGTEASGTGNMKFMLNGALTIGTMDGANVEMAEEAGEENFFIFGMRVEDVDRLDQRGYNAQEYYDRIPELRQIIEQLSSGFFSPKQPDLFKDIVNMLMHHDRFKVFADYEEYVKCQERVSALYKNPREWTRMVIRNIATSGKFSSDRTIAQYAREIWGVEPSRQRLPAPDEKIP
The experiment in a line: enzyme kinetics on purified rabbit muscle glycogen phosphorylase. Type of assay: biochemical.

SMILES strings stand for the structures.

The values below come from paper PMC3723905, “Glycogen Phosphorylase Inhibitor N-(3,5-Dimethyl-Benzoyl)-N’-(β-D-Glucopyranosyl)Urea Improves Glucose Tolerance under Normoglycemic and Diabetic Conditions and Rearranges Hepatic Metabolism” (PLoS ONE, 2013).

For `Cc1cc(C)cc(C(=O)NC(=O)N[C@@H]2O[C@H](CO)[C@@H](O)[C@H](O)[C@H]2O)c1` [compound 4, N-(3,5-dimethyl-benzoyl)-N’-(β-D-glucopyranosyl)urea], the Ki was 0.93 ± 0.05 µM.
